Measurements reported in US20230235409A1, “METHOD OF PREDICTING THERAPEUTIC RESPONSE AND PROGNOSIS OF METASTATIC BREAST CANCER TO CHEMOTHERAPEUTIC AGENTS, AND TREATING METASTATIC BREAST CANCER” (Samsung Life Public Welfare Foundation, priority 2021, published 2023).

Tested on: premenopausal HR+/HER2− metastatic breast cancer
Experiment: Kaplan Meier PFS analysis of capecitabine-treated patients by five-gene marker combination
Type: in vivo
Procedure: Among 141 premenopausal HR+/HER2− MBC patients, a tumor sample was isolated from a group (n=62) administered with capecitabine, and sequencing was performed on the sample. CancerSCAN™ targeted panel sequencing was performed to detect 375 cancer-related gene variations, and transcriptome analysis was performed to detect overall gene expression patterns.
A univariate Cox proportional hazard model was analyzed for each genetic variation/CNV, the p-value derived by the log-rank test was defined as a p-value cutoff of 0.05 as the criterion for a statistically significant difference, and 30 biomarkers with p-value<0.05 were selected as candidate markers. […] In other words, the description of “NF2+FAT3” includes the case where there exists a mutation in either NF2 or FAT3 gene.

## CCCCCOC(=O)Nc1nc(=O)n([C@@H]2O[C@H](C)[C@@H](O)[C@H]2O)cc1F [capecitabine]
Mutant group (mutation in NF2, FAT3, LRP1B, PTEN or RAD50), capecitabine-administered group n=62, FIG. 3
  median PFS: 12 months
Mutant group vs WT (no mutation in all five genes), capecitabine-administered patients, FIG. 3
  risk of mutant group relative to normal group (WT), PFS: about 5 times
